System: smooth muscle cells
Assay: Inhibition of the proliferation of smooth muscle cells (3H-thymidine incorporation)
Assay type: cell-based, pigs
Details: Sus scrofa; smooth muscle cells from pig aortas; half-maximum inhibition of 3H-thymidine incorporation produced by 10% FCS
Description: Investigation of the inhibition of the proliferation of smooth muscle cells by the compounds according to the invention
To determine the antiproliferative action of the compounds, smooth muscle cells are used which have been obtained from the aortas of pigs by the media explant technique [R. Ross, J. Cell. Biol. 50, 172, 1971]. The cells are inoculated into suitable culture dishes, as a role 96-hole plates, and cultured at 37° C. for 2-3 days in medium 199 with 7.5% FCS and 7.5% NCS, 2 mM L-glutamine and 15 mM HEPES, pH 7.4 in 5% CO2. The cells are then synchronized by withdrawal of serum for 2-3 days and then stimulated to growth using serum or other factors. At the same time, test compounds are added. […] To determine the IC50 values, the active compound concentration is calculated at which sequential dilution of the active compound causes half-maximum inhibition of the thymidine incorporation produced by 10% FCS.

NC(=O)C(NC(=O)[C@@H]1CCCC[C@H]1c1ccc(Cc2c(-c3ccccc3)[nH]c3ccccc23)cc1)c1ccccc1 (stereo partly drawn) [Example 3, trans-2-[4-(2-Phenylindol-3-yl-methyl)phenyl]-cyclohexane-1-carbonyl(phenylglycinamido)amide]
IC50: 0.02 nM
